In patent publication US11952364B2, “TRK inhibitors useful as anticancer drugs” (TYLIGAND BIOSCIENCE (SHANGHAI) LIMITED, priority 2018, dated 2024):
pIC50: −log10 of the molar value.

What follows are molecules tested on Ba/F3 ETV6-NTRK3-G696C cells (assay: Proliferation of Ba/F3 ETV6-NTRK3-G696C cells (CellTiter-Glo)). Conditions: Mus musculus, BaF3, 72 h, Table 7; 72 hours; read-out: Ba/F3 ETV6-NTRK3-G696C, IC50.
Assay type: cell-based, mouse
From the text: Ba/F3 ETV6-NTRK3-G696C is a stable transgenic cell line constructed by KYinno Biotechnology Co., Ltd. on mouse primary B cell Ba/F3 wherein NTRK3 is highly expressed with a mutation of G at position […] to C and fused with ETV6 to form ETV6-NTRK3. • [Test method]: Promega's CellTiter-Glo® Luminescent Cell Viability Assay kit was used to evaluate the inhibitory activity of the compounds on the proliferation of Ba/F3 ETV6-NTRK3-G696C cells. • [Instrument]: Spectramax M3 multifunctional microplate reader from Molecular Devices. • [Test materials]: Ba/F3 ETV6-NTRK3-G696C cell line (constructed by KYinno Biotechnology Co., Ltd. (Beijing)), 96-well transparent flat-bottomed black-walled cell culture plate (Corning, cat #3603), RPMI-1640 media (GE, product number #SH30027.01), fetal bovine serum FBS (Thermo Fisher, cat #10099-141), CellTiter-Glo® Luminescent Cell Viability Assay kit (Promega, cat #G7572), PBS (Solarbio, cat #P1020), DMSO (Sigma, cat #D2650). • [Experimental procedure]: When resuscitating Ba/F3 ETV6-NTRK3-G696C cells, • the freezing tube was quickly shaken in a 37° C. water bath to melt within 1 minute. The thawed cell suspension was mixed uniformly with RPMI1640 medium containing 10% FBS, centrifuged at 1000 rpm for 5 minutes, and the supernatant discarded. 5 mL of complete medium (RPMI1640 medium with 10% FBS) was taken to resuspend the cell pellets, charged into a cell culture flask with a bottom area of 25 cm^2, and incubated in a cell incubator at 37° C., 95% humidity and 5% CO2. Cells were allowed to passage when the number of cells reached about 10^6 cells/mL. For cell passage, the old cell suspension was directly pipetted evenly, 1/5 of the cell suspension was kept, 4 mL of new complete medium was added, after pipetting evenly, the cell flask was placed in the cell incubator for further culturing. Cell plating was performed when the number of cells reached about 10^6 cells/mL again. For cell plating, 1/5 of the cell suspension was kept for further culturing as in the cell passage method, and the remaining 4/5 of the cell suspension was placed in a 15 mL centrifuge tube, detected for cell viability by Trypan blue exclusion method to ensure that cell viability was above 90%. A cell suspension with a density of 5.56×10^4 viable cells/mL was prepared with complete medium, and 90 μL of such cell suspension was added to a 96-well cell culture plate to obtain the cell density of 5000 viable cells/mL in the cell culture plate. A control group containing no cells, no compound and only complete medium (i.e. culture medium control) and a control group containing no compound but containing cells (i.e. cell control) were set. The cell plate was placed in a cell incubator overnight. The 10 mM compound stock solution in DMSO was first serially diluted with DMSO at a dilution factor of 3.16 times, to obtain 9 concentrations, and the 10th concentration was set as DMSO control without compound. Then, PBS was used to dilute the DMSO solutions of compounds of different concentrations, at a dilution factor of 100 times, so that the DMSO concentration in the compound solution of each concentration was 1%. Finally, 10 μL of each of the above solutions was added to the corresponding cell culture plate, so that the initial compound concentration was 10 μM, with the remaining concentrations being successively diluted at a dilution factor of 3.16 times, and the DMSO content in the cell culture plate was 0.1%. The cell plate was placed in a cell incubator and cultured for 72 hours. For endpoint detection, the CellTiter-Glo reagent was melted, and the cell plate was moved to room temperature to equilibrate for 30 minutes, added with 100 μL of CellTiter-Glo for each well, and shaken on an orbital shaker for 5 minutes to fully lyse the cells. […]
In the case of `Cn1ncc2cc(Oc3ccc(NC(=O)c4ccc(C(F)(F)F)n(-c5ccc(F)cc5)c4=O)cc3F)c(-c3cn[nH]c3)cc21` [Example 1, N-(3-fluoro-4-(1-methyl-6-(1H-pyrazol-4-yl)-1H-indazol-5-yloxy)phenyl)-1-(4-fluorophenyl)-6-trifluoromethyl-2-oxo-1,2-dihydmpyridine-3-carboxamide monomethanesulfonate], the pIC50 was 7.48. `Cn1ncc2cc(Oc3ccc(NC(=O)c4ccc(C5CC5)n(-c5ccc(F)cc5)c4=O)cc3F)c(-c3cn[nH]c3)cc21` [Example 2, N-(3-fluoro-4-(1-methyl-6-(1H-pyrazol-4-yl)-1H-indazol-5-yloxy)phenyl)-1-(4-fluorophenyl)-6-cyclopropyl-2-oxo-1,2-dihydmpyridine-3-carboxamide] showed a pIC50 of 7.70. `CCn1ncc2cc(Oc3ccc(NC(=O)c4ccc(C)n(-c5ccc(F)cc5)c4=O)cc3F)c(-c3cn[nH]c3)cc21` [Example 3, N-(3-fluoro-4-(1-ethyl-6-(1H-pyrazol-4-yl)-1H-indazol-5-yloxy)phenyl)-1-(4-fluorophenyl)-6-methyl-2-oxo-1,2-dihydmpyridine-3-carboxamide] was tested, and the pIC50 was 7.74. For `Cc1ccc(C(=O)Nc2ccc(Oc3cc4cnn(C(C)C)c4cc3-c3cn[nH]c3)c(F)c2)c(=O)n1-c1ccc(F)cc1` [Example 4, N-(3-fluoro-4-(1-isopropyl-6-(1H-pyrazol-4-yl)-1H-indazol-5-yloxy)phenyl)-1-(4-fluorophenyl)-6-methyl-2-oxo-1,2-dihydmpyridine-3-carboxamide], the pIC50 was 7.47. With `CCc1ccc(C(=O)Nc2ccc(Oc3cc4cnn(C)c4cc3-c3cn[nH]c3)c(F)c2)c(=O)n1-c1ccc(F)cc1` [Example 5, N-(3-fluoro-4-(1-methyl-6-(1H-pyrazol-4-yl)-1H-indazol-5-yloxy)phenyl)-1-(4-fluorophenyl)-6-ethyl-2-oxo-1,2-dihydropyridine-3-carboxamide] the pIC50 was 8.17. Molecule `CC(C)c1ccc(C(=O)Nc2ccc(Oc3cc4cnn(C)c4cc3-c3cn[nH]c3)c(F)c2)c(=O)n1-c1ccc(F)cc1` [Example 6, N-(3-fluoro-4-(1-methyl-6-(1H-pyrazol-4-yl)-1H-indazol-5-yloxy)phenyl)-1-(4-fluorophenyl)-6-isopropyl-2-oxo-1,2-dihydropyridine-3-carboxamide] has a pIC50 of 7.80.

Same assay, conditions: Mus musculus, BaF3, Table 7-1; separate test; read-out: Ba/F3 ETV6-NTRK3-G696C, IC50
Work on `COc1ccc(C(=O)Nc2ccc(Oc3cc4cnn(C)c4cc3-c3cn[nH]c3)c(F)c2)c(=O)n1-c1ccc(F)cc1` [Example 12, N-(3-fluoro-4-(1-methyl-6-(1H-pyrazol-4-yl)-1H-indazol-5-yloxy)phenyl)-1-(4-fluorophenyl)-6-methoxy-2-oxo-1,2-dihydropyridine-3-carboxamide] yielded a pIC50 of 8.52. `CCc1ccc(C(=O)Nc2ccc(Oc3cc4cnn(CC)c4cc3-c3cn[nH]c3)c(F)c2)c(=O)n1-c1ccc(F)cc1` [Example 18, N-(3-fluoro-4-(1-ethyl-6-(1H-pyrazol-4-yl)-1H-indazol-5-yloxy)phenyl)-1-(4-fluorophenyl)-6-ethyl-2-oxo-1,2-dihydropyridine-3-carboxamide] was tested, and the pIC50 was 7.92. With `CCn1ncc2cc(Oc3ccc(NC(=O)c4ccc(C5CC5)n(-c5ccc(F)cc5)c4=O)cc3F)c(-c3cn[nH]c3)cc21` [Example 19, N-(3-fluoro-4-(1-ethyl-6-(1H-pyrazol-4-yl)-1H-indazol-5-yloxy)phenyl)-1-(4-fluorophenyl)-6-cyclopropyl-2-oxo-1,2-dihydropyridine-3-carboxamide] the pIC50 was 7.85. In the case of `CCn1ncc2cc(Oc3ccc(NC(=O)c4ccc(OC)n(-c5ccc(F)cc5)c4=O)cc3F)c(-c3cn[nH]c3)cc21` [Example 23, N-(3-fluoro-4-(1-ethyl-6-(1H-pyrazol-4-yl)-1H-indazol-5-yloxy)phenyl)-1-(4-fluorophenyl)-6-methoxy-2-oxo-1,2-dihydropyridine-3-carboxamide], the pIC50 was 7.96.

Same assay, conditions: Mus musculus, BaF3, Table 7-2; separate test; read-out: Ba/F3 ETV6-NTRK3-G696C, IC50
Work on `CSc1ccc(C(=O)Nc2ccc(Oc3cc4cnn(C)c4cc3-c3cn[nH]c3)c(F)c2)c(=O)n1-c1ccc(F)cc1` [Example 11, N-(3-fluoro-4-(1-methyl-6-(1H-pyrazol-4-yl)-1H-indazol-5-yloxy)phenyl)-1-(4-fluorophenyl)-6-methylthio-2-oxo-1,2-dihydropyidine-3-carboxamide] yielded a pIC50 of 8.74. Work on `CCOc1ccc(C(=O)Nc2ccc(Oc3cc4cnn(C)c4cc3-c3cn[nH]c3)c(F)c2)c(=O)n1-c1ccc(F)cc1` [Example 14, N-(3-fluoro-4-(1-methyl-6-(1H-pyrazol-4-yl)-1H-indazol-5-yloxy)phenyl)-1-(4-fluorophenyl)-6-ethoxy-2-oxo-12-dihydropyridine-3-carboxamide] yielded a pIC50 of 8.80. `Cn1ncc2cc(Oc3ccc(NC(=O)c4ccc(OC5CC5)n(-c5ccc(F)cc5)c4=O)cc3F)c(-c3cn[nH]c3)cc21` [Example 15, N-(3-fluoro-4-(1-methyl-6-(1H-pyrazol-4-yl)-1H-indazol-5-yloxy)phenyl)-1-(4-fluorophenyl)-6-cyclopropoxy-2-oxo-1,2-dihydropyridine-3-carboxamide] was tested, and the pIC50 was 8.72. For `CC(C)Oc1ccc(C(=O)Nc2ccc(Oc3cc4cnn(C)c4cc3-c3cn[nH]c3)c(F)c2)c(=O)n1-c1ccc(F)cc1` [Example 16, N-(3-fluoro-4-(1-methyl-6-(1H-pyrazol-4-yl)-1H-indazol-5-yloxy)phenyl)-1-(4-fluorophenyl)-6-isopropoxy-2-oxo-1,2-dihydropyridine-3-carboxamide], the pIC50 was 8.92. Work on `CCn1ncc2cc(Oc3ccc(NC(=O)c4ccc(OC(C)C)n(-c5ccc(F)cc5)c4=O)cc3F)c(-c3cn[nH]c3)cc21` [Example 26, N-(3-fluoro-4-(1-ethyl-6-(1H-pyrazol-4-yl)-1H-indazol-5-yloxy)phenyl)-1-(4-fluorophenyl)-6-isopropoxy-2-oxo-1,2-dihydropyridine-3-carboxamide] yielded a pIC50 of 8.51.

Same assay, conditions: Mus musculus, BaF3, Table 9; read-out: Ba/F3 ETV6-NTRK3-G696C cell proliferation inhibitory activity (IC50)
Molecule `COc1ccc(C(=O)Nc2ccc(Oc3cc4cnn5c4c(c3-c3cn[nH]c3)CC5)c(F)c2)c(=O)n1-c1ccc(F)cc1` [Example 28, N-(4-((5-(1H-pyrazol-4-yl)-6,7-dihydropyrrolo[3,2,1-hi]-indazol-4-yl)oxy)-3-fluorophenyl)-1-(4-fluorophenyl)-6-methoxy-2-oxo-1,2-dihydropyidine-3-carboxamide] has a pIC50 of 8.44. In the case of `Cc1ccc(C(=O)Nc2ccc(Oc3cc4cnn5c4c(c3-c3cn[nH]c3)CC5)c(F)c2)c(=O)n1-c1ccc(F)cc1` [Example 31, N-(4-((5-(1H-pyrazol-4-yl)-6,7-dihydropyrrolo[3,2,1-hi]-indazol-4-yl)oxy)-3-fluorophenyl)-1-(4-fluorophenyl)-6-methyl-2-oxo-1,2-dihydropyridine-3-carboxamide], the pIC50 was 8.28. `CCOc1ccc(C(=O)Nc2ccc(Oc3cc4cnn5c4c(c3-c3cn[nH]c3)CC5)c(F)c2)c(=O)n1-c1ccc(F)cc1` [Example 32, N-(4-((5-(1H-pyrazol-4-yl)-6,7-dihydropyrrolo[3,2,1-hi]-indazol-4-yl)oxy)-3-fluorophenyl)-6-ethoxy-1-(4-fluorophenyl)-2-oxo-12-dihydropyridine-3-carboxamide] gave a pIC50 of 8.33.

Same assay, conditions: Table 7-2; separate test; read-out: Ba/F3 ETV6-NTRK3-G696C, IC50
`CCOc1ccc(C(=O)Nc2ccc(Oc3cc4cnn(CC)c4cc3-c3cn[nH]c3)c(F)c2)c(=O)n1-c1ccc(F)cc1` [Example 24, N-(3-fluoro-4-(1-ethyl-6-(1H-pyrazol-4-yl)-1H-indazol-5-yloxy)phenyl)-1-(4-fluorophenyl)-6-ethoxy-2-oxo-12-dihydropyridine-3-carboxamide] showed a pIC50 of 8.46.
